From patent US10975056B2 (GlaxoSmithKline Intellectual Property Development Limited, priority 2016, dated 2021)
Values joined by “and” are separate entries in the source; they are usually repeats but may differ in a detail not shown here. Equal entries are not always repeated. Structures can show the parent of a compound that is named as a salt. Where two headings read alike, the source gives them in different places.

Tests used:
[1] = test system: erythroid progenitor cells (EPCs); test: Fetal hemoglobin (HbF) ELISA in day 7 erythroid progenitor cells; type: cell-based, human; conditions: Homo sapiens, Erythroid progenitor cell, HbF ELISA, day 7 EPCs, 5 days; read-out: EPC ELISA (pEC50 category) (converted)
Experimental: Day 7 EPCs were cultured in duplicate plates with serially diluted Compound A for 5 days at 37° C. Wells were then analyzed for either induction of fetal hemoglobin (HbF,HbF ELISA) or cell growth (Cell Titer-Glo). In both cases, signal was normalized to vehicle-control treated cells.
Culture, Expansion, and Characterization of Day 7 Erythroid Progenitor Cells (EPC)s
All donors provided written informed consent for use of their samples, and the collection and use of the samples received institutional review board approval. All cryopreserved human bone marrow CD34+ cells used here were obtained from AlICells (Emeryville, Calif.) and were generally from different donors. The CD34+ cells were cultured to generate EPCs at day 7. Briefly, 1 million cells were cultured in 5% CO2, 5% O2 at 37° C. in H3000 Stemspan media (StemCell Technologies Vancouver, BC, Canada) supplemented with 2 mM L-glutamine, 40 μg/mL human low-density lipoproteins (StemCell Technologies), 10 ng/mL recombinant human (rh) interleukin IL-3 (R&D Systems, Minneapolis, Minn.), 100 ng/mL rh stem cell factor (R&D Systems), and 0.5 U/mL rh erythropoietin (Invitrogen, Grand Island, N.Y.). Cells were split and refed on day 4 with complete culture media described above and harvested on day 7 for evaluation of erythroid marker expression and assessment of γ-globin induction. Day 7 EPCs were then frozen in liquid nitrogen at 5 to 10 million cells/mL in 95% fetal bovine serum (FBS; Invitrogen) with 5% DMSO for subsequent use.
At the time of compound treatment, frozen day 7 EPCs prepared as described above were thawed, washed once and re-suspended in complete culture media as described above with the exception of an increase of rhEPO to 3 U/mL. Cells were counted and diluted to […] for plating into assay plates. Cells were then dispensed, at 30 μL per well with Multidrop™ Combi Reagent Dispenser (Thermo Scientific), into 384-well cell culture plates into which test compounds were pre-dispensed at 100 nL/well. Black Clear Bottom (Greiner Bio-One; 781090) and White (Greiner Bio-One; 781080) plates were used for ELISA and Cell Titer-Glo assays, respectively. The final cell density in the assays is 1,000 cells per well, with final compound concentrations between 33 nM (highest) and […] (lowest) for the 22-points serial dilution.
Fetal Hemoglobin (HbF) ELISA
Coating anti-HbF Ab (Bethyl Lab; cat. A80-136A) was diluted by 100-fold in the coating buffer (0.05 M carbonate-bicarbonate, pH 9.6), and then 20 μL/well was added to a 384-well MaxiSorp ELISA plate (Thermo Fisher; cat. 464718). After 1 hour incubation at room temperature, the plates were washed twice with ELISA washing buffer (50 mM Tris, 0.05% Tween 20, pH 8.0) with an EL406 plate washer (BioTek, Winooski, Vt.). Then, 40 μL/well of blocking buffer consisting of 50 mM Tris and 1% BSA (pH 8.0) was added to the plate and stored at 4° C. with cover sheet overnight, or until time of the assay. The coated ELISA plates were stable for up to 30 days at 4° C. On the day of assay, the plates were washed twice with ELISA washing buffer prior to addition of cell lysate.
After 5 days at 37° C. with 5% CO2 cell culture plates for ELISA assay were put into −80° C. freezer for a minimum of 2 hours. After thawing at room temperature, 30 μL of cell lysis buffer (Invitrogen; cat. FNN0011, supplemented with 1× protease inhibitor) was added to each well and the resulting cell lysate was mixed eight times with a Cybi-Well (Jena, Germany) pipettor. Following the mixing procedure, 20 μL/well of lysate was transferred to the coated ELISA plates described above followed by a 1 hour incubation at room temperature. The ELISA assay plates were washed three times with ELISA wash buffer. 20 μL per well of 1:75,000 to 100,000 diluted horseradish peroxidase (HRP) conjugate detection antiHbF Ab (Bethyl Labs; cat. A80-136P, diluted in 50 mM Tris [pH 8.0], 1% BSA, 0.05% Tween-20) was then added. […]

DNMT1 = DNMT1 (Homo sapiens, UniProt P26358); test: DNMT1 biochemical activity, breaklight assay and/or SPA assay
DNMT1, sequence (P26358 whole entry, looked up): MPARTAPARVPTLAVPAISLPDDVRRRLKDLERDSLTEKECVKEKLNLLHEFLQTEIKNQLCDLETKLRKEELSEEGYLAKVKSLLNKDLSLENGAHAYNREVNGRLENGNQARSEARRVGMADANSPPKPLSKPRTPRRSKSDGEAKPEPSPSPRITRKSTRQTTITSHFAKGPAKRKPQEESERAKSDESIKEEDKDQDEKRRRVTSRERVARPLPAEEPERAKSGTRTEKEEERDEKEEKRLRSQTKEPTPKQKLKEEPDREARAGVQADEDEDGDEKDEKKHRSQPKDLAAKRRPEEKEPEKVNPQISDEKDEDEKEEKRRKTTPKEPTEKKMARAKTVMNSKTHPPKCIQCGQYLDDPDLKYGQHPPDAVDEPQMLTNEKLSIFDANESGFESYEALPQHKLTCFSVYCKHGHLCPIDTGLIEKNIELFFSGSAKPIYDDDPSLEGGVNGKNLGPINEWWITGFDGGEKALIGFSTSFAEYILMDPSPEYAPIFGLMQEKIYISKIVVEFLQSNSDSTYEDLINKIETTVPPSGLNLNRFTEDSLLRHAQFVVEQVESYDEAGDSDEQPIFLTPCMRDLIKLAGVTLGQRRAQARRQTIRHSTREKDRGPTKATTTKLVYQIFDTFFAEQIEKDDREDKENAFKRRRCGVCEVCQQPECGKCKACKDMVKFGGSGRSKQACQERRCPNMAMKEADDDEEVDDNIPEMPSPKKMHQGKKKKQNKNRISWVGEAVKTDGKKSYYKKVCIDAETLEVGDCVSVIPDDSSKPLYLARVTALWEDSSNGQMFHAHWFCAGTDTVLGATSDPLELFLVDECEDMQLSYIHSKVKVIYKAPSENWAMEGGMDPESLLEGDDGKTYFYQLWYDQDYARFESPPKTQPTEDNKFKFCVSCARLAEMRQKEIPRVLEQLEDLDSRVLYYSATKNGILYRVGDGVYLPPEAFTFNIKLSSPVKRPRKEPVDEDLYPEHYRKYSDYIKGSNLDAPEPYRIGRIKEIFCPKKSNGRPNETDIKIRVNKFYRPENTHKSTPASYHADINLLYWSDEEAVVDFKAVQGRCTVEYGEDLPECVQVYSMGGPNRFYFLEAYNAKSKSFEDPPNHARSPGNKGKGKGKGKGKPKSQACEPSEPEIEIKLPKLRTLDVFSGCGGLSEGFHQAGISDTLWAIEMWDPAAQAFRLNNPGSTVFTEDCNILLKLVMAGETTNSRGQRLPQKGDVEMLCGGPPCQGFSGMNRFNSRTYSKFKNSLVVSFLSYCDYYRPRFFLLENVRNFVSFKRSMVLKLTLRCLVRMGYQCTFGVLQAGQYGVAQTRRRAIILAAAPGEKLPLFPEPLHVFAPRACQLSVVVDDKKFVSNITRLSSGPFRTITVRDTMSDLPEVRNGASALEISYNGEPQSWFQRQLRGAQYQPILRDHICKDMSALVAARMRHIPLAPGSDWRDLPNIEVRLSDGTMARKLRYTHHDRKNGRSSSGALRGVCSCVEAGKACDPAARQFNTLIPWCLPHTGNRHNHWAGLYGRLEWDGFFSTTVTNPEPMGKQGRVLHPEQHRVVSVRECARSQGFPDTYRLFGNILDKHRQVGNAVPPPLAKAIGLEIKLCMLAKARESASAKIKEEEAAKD
Experimental: DNMT1 breaklight in vitro assays were conducted in a total volume of 50 μl in a standard 384 well format, using black non-binding surface microplates (Corning 3575). […] Negative control wells used 5 μl of DNMT1 and 5 μl of oligonucleotide but 0 μM SAM. All reagents were made up in 1× assay buffer (20 mM Tris pH 6.8, 25 mM NaCl, 0.5 mM MgCl2, 0.01% Triton X100 and 1 mM DTT). The reaction was incubated at 26° C. for 45 min and then stopped with the addition of 40 μl detection reagent. Detection reagent, made up in 1× Gla assay buffer (20 mM Tris pH 8.0, 80 mM NaCl, 0.75 mM MgCl2, 0.01% Triton X100 and 1 mM DTT) has a final concentration of 100 μM SAH (Sigma #A9384) and 0.0008 units/μl Gla1 restriction endonuclease (Sibenzyme #E494). Following addition of the detection reagent the plate was incubated in the dark at room temperature for 5 hr. Fluorescence intensity was then measured on the PHERAstar FS (BMG Labtech) at Ex 485 nm and Em 520 nm, with a gain of 400 and an integration time of 100 ms.
Biochemical activity of DNMT1 analyzed using SPA technology. Plates (Griener 784075) were pre-stamped with 100 nL/well of compound (11-point, 3-fold serial dilution). […] Low control wells contained 5 μL of buffer instead of enzyme. Following a 40 minute incubation, the reaction was quenched upon the addition of 10 μL of stop mixture containing 1 mM SAM (Sigma A7007) and 2 mg/mL PEI beads (Perkin Elmer RPNQ0098). Plates were sealed, centrifuged for 1 min and then read on a Viewlux (Perkin Elmer) using the 613 nm emission filter/300 s read time following a 30 minute dark adapt. Assay conditions prior to quench consisted of 40 nM DNMT1 (601-1600, produced internally), 100 nM 3H-SAM (American Radiolabeled Chemicals ART 0288), 900 nM SAM (New England BioLabs B9003S) and 200 nM hemi methylated DNA oligonucleotide (synthesized at Integrated DNA Technologies, 5′-[…]-3′) in 50 mM HEPES (pH 8.0), 2 mM MgCl2, 1 mM DTT, 0.01% NP-40 and 0.01% BSA.
Comments • 1. […] Where a field is empty, the compound was not tested in that assay.

[2] = binned activity in either the breaklight or the SPA assay, read-out: DNMT1 BioChemical (pIC50 category) (converted)
[3] = binned activity in either the breaklight or the SPA assay

Row | Compound | EC50 [1] [nM] | IC50 (DNMT1; [2]) [nM] | IC50 (DNMT1; breaklight assay and/or SPA assay, repeated experimental runs, read-out: average pIC50 against DNMT1 (converted)) | DNMT1 BioChemical (pIC50 category) (DNMT1; [3])
1 | CCc1c(C#N)c(SC(C(N)=O)c2ccccc2)nc(N2CC[C@@H](N)[C@H](F)C2)c1C#N (relative stereo) [Example 508, rel-2-((6-(trans)-4-amino-3-fluoropiperidin-1-yl)-3,5-dicyano-4-ethylpyridin-2-yl)thio)-2-phenylacetamide] | < 316 | < 316 |  | 
2 | CCc1c(C#N)c(SC(C(N)=O)c2ccccc2)nc(N2CC[C@@H](N)[C@@H](F)C2)c1C#N (relative stereo) [Example 545, rel-2-((6-cis-4-amino-3-fluoropiperidin-1-yl)-3,5-dicyano-4-ethylpyridin-2-yl)thio)-2-phenylacetamide] | < 316 | < 316 |  | 
3 | CCc1c(C#N)c(SCc2ccc(CNC(=O)CN)cc2)nc(N2CC[C@@H](N)[C@@H](F)C2)c1C#N (relative stereo) [Example 546, rel-2-amino-N-(4-(((6-(cis-4-amino-3-fluoropiperidin-1-yl)-3,5-dicyano-4-ethylpyridin-2-yl)thio)methyl)benzyl)acetamide] | < 316 | 316 to 1000 | 316 to 1000 nM and 398 nM | 
4 | CCc1c(C#N)c(S[C@H](C(N)=O)c2ccc(F)cc2)nc(N2CCC(N(C)C)CC2)c1C#N (single isomer, unassigned) [Example 465, 2-((3,5-dicyano-6-(4-(dimethylamino)piperidin-1-yl)-4-ethylpyridin-2-yl)thio)-2-(4-fluorophenyl)acetamide, Formic acid salt] | < 316 |  |  | D (Category D: ≥6.5)
5 | [2H]C(Sc1nc(N(C)C)c(C#N)c(CC)c1C#N)(C(N)=O)c1ccccc1 (stereo not drawn) [Example 305, 2-((3,5-Dicyano-6-(dimethylamino)-4-ethylpyridin-2-yl)thio)-2-phenylacetamide-2-d] | 316 to 1000 |  |  | 
6 | [2H][C@](Sc1nc(N(C)C)c(C#N)c(CC)c1C#N)(C(N)=O)c1ccccc1 [Example 308, (R)-2-((3,5-Dicyano-6-(dimethylamino)-4-ethylpyridin-2-yl)thio)-2-phenylacetamide-2-d] | 316 to 1000 |  |  | 
7 | [2H]C([2H])([2H])N(c1nc(SC(C(N)=O)c2ccccc2)c(C#N)c(CC)c1C#N)C([2H])([2H])[2H] (stereo not drawn) [Example 404, 2-((3,5-Dicyano-6-(dimethylamino-d6)-4-ethylpyridin-2-yl)thio)-2-phenylacetamide] | 316 to 1000 |  |  | 

The remaining lines, values ahead:

Row | EC50 [1] [nM] | IC50 (DNMT1; [2]) [nM] | IC50 (DNMT1; breaklight assay and/or SPA assay, repeated experimental runs, read-out: average pIC50 against DNMT1 (converted)) | DNMT1 BioChemical (pIC50 category) (DNMT1; [3]) | Compound
8 | < 316 | < 316 |  |  | CCc1c(C#N)c(S[C@@H](C(N)=O)c2ccccc2)nc(N(C)CC(N)=O)c1C#N (single isomer, unassigned) [Example 413, 2-((6-((2-amino-2-oxoethyl)(methyl)amino)-3,5-dicyano-4-ethylpyridin-2-yl)thio)-2-phenylacetamide]
9 | < 316 |  |  | D (Category D: ≥6.5) | CCc1c(C#N)c(S[C@@H](C(N)=O)c2ccccc2)nc(N(C)CCO)c1C#N (single isomer, unassigned) [Example 431]
10 | < 316 |  |  | D (Category D: ≥6.5) | CCc1c(C#N)c(SC(C(N)=O)c2ccccc2)nc(N2CCC(N3CCC[C@@H]3CO)CC2)c1C#N (single isomer, unassigned) [Example 464]
11 | < 316 | < 316 |  |  | CCc1c(C#N)c(SC(C(N)=O)c2ccccc2)nc(N2CC[C@@H](NC(=O)OC(C)(C)C)[C@@H](F)C2)c1C#N (single isomer, unassigned) [Example 534, rel-tert-butyl (cis)-1-(6-((2-amino-2-oxo-1-phenylethyl)thio)-3,5-dicyano-4-ethylpyridin-2-yl)-3-fluoropiperidin-4-yl)carbamate]
12 | < 316 |  |  | D (Category D: ≥6.5) | CCc1c(C#N)c(S[C@H](C(N)=O)c2ccccc2)nc(N2CCC(C)(N)CC2)c1C#N (single isomer, unassigned) [Example 608, 2-((6-(4-amino-4-methylpiperidin-1-yl)-3,5-dicyano-4-ethylpyridin-2-yl)thio)-2-phenylacetamide]
13 | < 316 |  |  |  | CCc1c(C#N)c(SC(C(N)=O)c2ccccc2)nc(N2CCC(N)CC2)c1C#N (stereo not drawn) [Example 143, 2-((6-(4-Aminopiperidin-1-yl)-3,5-dicyano-4-ethylpyridin-2-yl)thio)-2-phenylacetamide]
14 | < 316 |  |  |  | CCc1c(C#N)c(S[C@@H](C(N)=O)c2ccccc2)nc(N2CCC(N)CC2)c1C#N [Example 412, (R)-2-((6-(4-aminopiperidin-1-yl)-3,5-dicyano-4-ethylpyridin-2-yl)thio)-2-phenylacetamide, Hydrochloride]
15 | < 316 |  |  |  | CCc1c(C#N)c(SC(C(N)=O)c2ccccc2)nc(N2CCC(NCC3(C)CCC3)CC2)c1C#N (stereo not drawn) [Example 466, 2-((3,5-dicyano-4-ethyl-6-(4-(((1-methylcyclobutyl)methyl)amino)piperidin-1-yl)pyridin-2-yl)thio)-2-phenylacetamide]
16 | < 316 |  |  |  | CCc1c(C#N)c(S[C@H](C(N)=O)c2ccccc2)nc(N2CCC(N)CC2)c1C#N [Example 605, (S)-2-((6-(4-aminopiperidin-1-yl)-3,5-dicyano-4-ethylpyridin-2-yl)thio)-2-phenylacetamide, Hydrochloride]
17 | < 316 |  |  |  | CCc1c(C#N)c(SC(C(N)=O)c2ccccc2)nc(N(C)CC(=O)N2CC[C@@H](CO)C2)c1C#N (stereo partly drawn) [Example 652, 2-((3,5-dicyano-4-ethyl-6-((2-((R)-3-(hydroxymethyl)pyrrolidin-1-yl)-2-oxoethyl)(methyl)amino)pyridin-2-yl)thio)-2-phenylacetamide]
